Assay results as given in patent US12564641B2 (EISAI R&D MANAGEMENT CO., LTD., priority 2019, dated 2026).
Where two headings read alike, the source gives them in different places.

Experiments:
OVCAR3 cells = test: In vitro cytotoxicity analysis (Crystal Violet), OVCAR3; type: cell-based; conditions: Homo sapiens
Procedure: (§1) Plates were read at 570 nm. Data was analyzed using GraphPad Prism 6.
All ADCs were purified and characterized using SEC-HPLC for aggregation analysis, HIC-HPLC for DAR analysis, and cell-based assay with A431-A3 (MSLN^hi), A431 (MSLN^lo), and OVCAR3 (MSLN^hi) cell lines.

[1] = test system: A3 (A431 stably transfected with human mesothelin) cells; test: In vitro cytotoxicity analysis (Crystal Violet), A3; type: cell-based
Procedure: as §1
Fifteen anti-mesothelin antibodies were sub-cloned, scale-up expressed and purified, and conjugated using maleimide-VCP-eribulin as payload at the Cys80 position. All ADCs were purified and characterized using SEC-HPLC for aggregation analysis, HIC-HPLC for DAR analysis, and cell-based assay with A431-A3 (MSLN^hi), A431 (MSLN^lo), and OVCAR3 (MSLN^hi) cell lines. […] Based on the characterization data below, six antibodies (bolded) were selected for humanization.

HEC-251 cells = test: In vitro cytotoxicity analysis (Crystal Violet), HEC-251; type: cell-based; conditions: Homo sapiens
Procedure: as §1

[2] = test system: various cell lines (51 cell lines); test: In vitro potency (IC50, Crystal Violet) in cell lines with varying mesothelin expression; type: cell-based
Procedure: Cytotoxicitly Cells were sub-cultured and seeded at 5,000 cells/well in complete growth medium in 96-well tissue culture plates, and incubated at 37° C., 5% CO2 overnight (16 hours). Test reagents were serially diluted 1:3 in 2 mL deep-well dilution plates, starting at 200 nM (10 dilutions total). Diluted samples (100 μL) were added to the cell plates (starting concentration of test samples at 100 nM). Plates were incubated at 37° C., 5% CO2 for an additional 5 days. Medium was then discarded, and plates were washed once with 200 μL DPBS, stained with 50 μL of 0.2% Crystal Violet solution at room temperature for 15 min, and then washed extensively with tap water. Plates were air-dried, and Crystal Violet was dissolved with 200 μL of 1% SDS solution. Plates were read at 570 nm. Data was analyzed for IC50 determination using GraphPad Prism 6. Correlation analysis was performed in GraphPad Prism using a non-parametric Spearman analysis.

human NSCLC PDX LXFA-737 = test system: human NSCLC PDX LXFA-737
Procedure: Animals: Female NMRI nu/nu mice (Crl:NMRI-Foxn1nu), 4 to 6 weeks of age.
(§2) Experimental procedure: Animals were monitored until the tumor implants reached the study volume criteria of 50-250 mm^3 (e.g., 80-200 mm^3) in a sufficient number of animals. […] The day of randomization was designated as day 0.
(§3) Tumors were measured and mice were weighed twice a week during the experimental period. The first day of dosing was day 1, one day after randomization (day 0).
Statistical analysis: Inhibition of Tumor Growth, Test/Control Value in % (Min. T/C): The test versus control value (T/C in %) was calculated from the ratio of the median residual tumor volume (RTV) values of test versus control groups on day X multiplied by 100. Tumor volume doubling and quadrupling time (Td, Tq) for test and control groups was defined as the time interval (in days) required for a group to reach a median RTV of 200% or 400%.

MSLN-negative cell lines = test: In vitro cytotoxicity (IC50, Crystal Violet) on MSLN-negative cell lines (Example 11); type: cell-based; conditions: for IC50: Homo sapiens, read-out: In vitro cell based potency, IC50
Procedure: Plates were incubated at 37° C. 5% CO2 for an additional 5 days. […] Plates were read at 570 nm.

human NSCLC PDX LXFL-529 = test: Human NSCLC PDX model LXFL-529
Description: Animals: Female NMRI nu/nu mice, 4 to 6 weeks of age.
Xenotransplantation: LXFL-529 established growing tumor (T3N1M0) from a primary non-small cell lung adenocarcinoma human patient.
as §2, with “The process of the assignment to groups (enrollment, stratified randomization) may also be referred to as randomization. The” for “The”, “0 of the experiment.” for “0.”
as §3

[3] = test system: human mesothelioma PDX Meso7212; test: Human mesothelioma PDX model Meso7212 (Example 3)
Procedure: NMRI nu/nu female mice (Janvier Labs, 5-6 weeks) were acclimated for at least 4 days upon arrival prior to inoculation. Animals was housed 3-5 mice per ventilated cage with sterilized food pellets and water bottle available ad lib. Animals were ear marked and weighed prior to study initiation.
Donor tumor tissue was cut into 2×2 mm fragments and placed in a sterile Petri dish covered with 0.9% saline. In parallel, the receptor animals were subcutaneously treated with the analgesic Metacam® (2 mg/kg) and then anaesthetized by a single intravenous injection (0.15 mL/mouse) with Etomidat-Lipuro® (12 mg/kg). A superficial vertical incision in the skin of 5-8 mm on the left flank was performed. The tip of a surgical scissor was inserted into the incision, directly over the flank, and was used to form a pocket in the subcutaneous space. One tumor fragment per mouse was implanted into the pocket using surgical tweezers. The incision was closed with a metal clip and the animals were placed back into a clean cage.
During tumor propagation, tumor diameters were measured using a digital caliper (Mitutoyo). Animals were randomly assigned into experimental groups according to their tumor volume (inclusion criteria for tumor volume, 0.1-0.3 cm^3). Tumor volumes and body weights were recorded twice weekly.
The administration volume was 10 mL/kg for intravenous injections throughout all experimental groups.
Descriptive statistics were performed on the data for tumor volume and body weight. Tumor volumes of animals from each treatment group were compared with the control group by using a repeated-measures two-way ANOVA, followed by a Bonferroni post-test. Additionally, the comparison of tumor growth of animals within each group was also performed with the same statistical analysis.

MSLN-positive cell lines = test: In vitro cytotoxicity (IC50, Crystal Violet) on MSLN-positive cell lines (Example 11)
Procedure: Cytotoxicity: Cells were sub-cultured and seeded at 5,000 cells/well in complete growth medium in 96-well tissue culture plates, and incubated at 37° C., 5% CO2 overnight (16 hours). Test reagents were serially diluted 1:3 in 2 mL deep-well dilution plates, starting at 200 nM (10 dilutions total). Diluted samples (100 μL) were added to the cell plates (starting concentration of test samples at 100 nM). Plates were incubated at 37° C. 5% CO2 for an additional 5 days. Medium was then discarded, and plates were washed once with 200 μL DPBS, stained with 50 μL of 0.2% Crystal Violet solution at room temperature for 15 min, and then washed extensively with tap water. Plates were air-dried, and Crystal Violet was dissolved with 200 μL of 1% SDS solution. Plates were read at 570 nm. Data was analyzed for IC50 determination using GraphPad Prism 6.

For `C=C1C[C@@H]2CC[C@@]34C[C@H]5O[C@H]6[C@@H](O3)[C@H]3O[C@H](CC[C@@H]3O[C@H]6[C@H]5O4)CC(=O)C[C@@H]3[C@@H](OC)[C@@H](C[C@H](O)CN)O[C@H]3C[C@H]3O[C@@H](CC[C@@H]1O2)C[C@@H](C)C3=C` [Eribulin, eribulin, reference compound], the EC50 (OVCAR3 cells; OVCAR-3, read-out: Cell based Cytotoxicity assay, EC50 (nM) OVCAR3-6 hr, treated with ADC for 6 hours then washed off) was 2.81 nM, the EC50 (OVCAR3 cells; OVCAR-3, read-out: Cell based Cytotoxicity assay, EC50 (nM) OVCAR3-72 hr, treated for 72 hours) was 0.25 nM and the EC50 ([1]; A-431, 120 h, Table 18, 5 days, read-out: Cell-Based Cytotoxicity Assay, EC50 (nM) A3) was 1.03 nM. The EC50 ([1]; A-431, Table 19, payloads, read-out: Cell-Based Cytotoxicity Assay EC50 (nM) A3) was 1.03 nM, the EC50 ([1]; A-431, read-out: Cell based Cytotoxicity assay, EC50 (nM) A3-6 hr, treated with ADC for 6 hours then washed off) was 4.08 nM and the EC50 ([1]; A-431, read-out: Cell based Cytotoxicity assay, EC50 (nM) A3-48 hr, treated for 48 hours) was 1.09 nM. For the same compound, the EC50 (HEC-251 cells; HEC-251, 120 h, Table 18, 5 days, read-out: Cell-Based Cytotoxicity Assay, EC50 (nM) HEC-251) was 0.2 nM, the EC50 (HEC-251 cells; HEC-251, Table 19, payloads, read-out: Cell-Based Cytotoxicity Assay EC50 (nM) HEC-251) was 0.2 nM and the IC50 ([2]; A431-K5 cells (MSLN MFI 1430.3)) was 1500 pM. The IC50 ([2]; COV362, COV362 cells (MSLN MFI 113.5)) was 2780 pM, the IC50 ([2]; HAC-2 cells (MSLN MFI 172.3)) was 26600 pM and the IC50 ([2]; HEC-251, HEC-251 cells (MSLN MFI 53.3)) was 500 pM. For the same compound, the IC50 ([2]; HK-1, HK1 cells (MSLN MFI 39.2)) was 890 pM, the IC50 ([2]; HNE1, HNE-1 cells (MSLN MFI 110.8)) was 870 pM and the IC50 ([2]; HNE-1-T1 cells (MSLN MFI 79.3)) was 1030 pM. It also gave an IC50 ([2]; Homo sapiens, A549, A549 cells (MSLN MFI 14.2)) of 2720 pM, an IC50 ([2]; Homo sapiens, A-431, A431 cells (MSLN MFI 5.6)) of 550 pM and an IC50 ([2]; Homo sapiens, ASPC1, AsPC1 cells (MSLN MFI 33.47)) of 1620 pM. The IC50 ([2]; Homo sapiens, BXPC-3, BxPC3 cells (MSLN MFI 15.59)) was 660 pM, the IC50 ([2]; Homo sapiens, CNE-2, CNE2 cells (MSLN MFI 147.7)) was 490 pM and the IC50 ([2]; Homo sapiens, Caov-3, CaOV-3 cells (MSLN MFI 137.6)) was 440 pM. For the same compound, the IC50 ([2]; Homo sapiens, Capan-2, Capan-2 cells (MSLN MFI 36)) was 1210 pM, the IC50 ([2]; Homo sapiens, EGI-1, EGI-1 cells (MSLN MFI 14.8)) was 1480 pM and the IC50 ([2]; Homo sapiens, HCC1806, HCC1806 cells (MSLN MFI 189.3)) was 370 pM. It also gave an IC50 ([2]; Homo sapiens, HEC-1-A, HEC-1-A cells (MSLN MFI 16.5)) of 680 pM, an IC50 ([2]; Homo sapiens, HEC-1B, HEC-1-B cells (MSLN MFI 16.9)) of 540 pM and an IC50 ([2]; Homo sapiens, HONE1, HONE1 cells (MSLN MFI 108.6)) of 890 pM. The IC50 ([2]; Homo sapiens, JIMT-1, JIMT-1 cells (MSLN MFI 36.4)) was 390 pM, the IC50 ([2]; Homo sapiens, Lu-65, Lu65 cells (MSLN MFI 13.13)) was 560 pM and the IC50 ([2]; Homo sapiens, MFE-280, MFE-280 cells (MSLN MFI 45.1)) was 3240 pM. The IC50 ([2]; Homo sapiens, MKN-1, MKN1 cells (MSLN MFI 22.06)) was 960 pM, the IC50 ([2]; Homo sapiens, MKN-7, MKN7 cells (MSLN MFI 18.48)) was 580 pM and the IC50 ([2]; Homo sapiens, MKN-45, MKN45 cells (MSLN MFI 57.94)) was 3650 pM. It also gave an IC50 ([2]; Homo sapiens, MKN-74, MKN74 cells (MSLN MFI 7.73)) of 780 pM, an IC50 ([2]; Homo sapiens, NCI-H23, NCI-H23 cells (MSLN MFI 4.42)) of 600 pM and an IC50 ([2]; Homo sapiens, NCI-H226, H226 cells (MSLN MFI 725.3)) of 660 pM. It also gave an IC50 ([2]; Homo sapiens, NCI-H292, NCI-H292 cells (MSLN MFI 108.6)) of 580 pM, an IC50 ([2]; Homo sapiens, NCI-H460, NCI-H460 cells (MSLN MFI 8.56)) of 35300 pM and an IC50 ([2]; Homo sapiens, NCI-H1355, NCI-H1355 cells (MSLN MFI 11.5)) of 670 pM. For the same compound, the IC50 ([2]; Homo sapiens, NCI-H1650, NCI-H1650/MSLN cells (MSLN MFI 1865.5)) was 840 pM, the IC50 ([2]; Homo sapiens, NCI-H1650, NCI-H1650 cells (MSLN MFI 31.5)) was 610 pM and the IC50 ([2]; Homo sapiens, NCI-H2126, NCI-H2126 cells (MSLN MFI 73.6)) was 530 pM. The IC50 ([2]; Homo sapiens, NCI-N87, NCI-N87 cells (MSLN MFI 125.8)) was 110 pM, the IC50 ([2]; Homo sapiens, OVCAR-3, OVCAR3 A1 cells (MSLN MFI 220)) was 150 pM and the IC50 ([2]; Homo sapiens, PC-9, PC9 cells (MSLN MFI 11.24)) was 560 pM. For the same compound, the IC50 ([2]; Homo sapiens, SUNE1, SUNE1 cells (MSLN MFI 212.4)) was 560 pM, the IC50 ([2]; Homo sapiens, T47D, T-47D cells (MSLN MFI 4.4)) was 680 pM and the IC50 ([2]; Kuramochi cells (MSLN MFI 211.2)) was 890 pM. The IC50 ([2]; MOR/CPR cells (MSLN MFI 120.79)) was 3690 pM, the IC50 ([2]; NCI-H322, NCI-H322 cells (MSLN MFI 83.9)) was 460 pM and the IC50 ([2]; NCI-H1355-Sorted cells (MSLN MFI 32.7)) was 700 pM. For the same compound, the IC50 ([2]; NCI-H1568, NCI-H1568/MSLN cells (MSLN MFI 4474)) was 440 pM, the IC50 ([2]; NCI-H2110, NCI-H2110 cells (MSLN MFI 112.2)) was 320 pM and the IC50 ([2]; SNU-216, SNU216 cells (MSLN MFI 94.91)) was 1780 pM. The IC50 ([2]; SNU-245 cells (MSLN MFI 23.9)) was 78200 pM, the IC50 ([2]; SNU-478 cells (MSLN MFI 53.8)) was 1580 pM and the IC50 ([2]; SNU-1196 cells (MSLN MFI 40.2)) was 1140 pM. The IC50 ([2]; TFK1 cells (MSLN MFI 132.81)) was 1270 pM, the “minimum T/C” value (human NSCLC PDX LXFA-737; eribulin single dose of 0.2 mg/kg, on day 44) was 51.1% and the “Tq (tumor volume quadrupling time)” value (human NSCLC PDX LXFA-737; eribulin single dose of 3.2 mg/kg i.v.) was 80.1%. For the same compound, the “minimum T/C” value (human NSCLC PDX LXFA-737; eribulin single dose of 3.2 mg/kg i.v., on day 27) was 4.2%, the tolerability / bodyweight (human NSCLC PDX LXFA-737; mouse, in vivo, iv, 3.2 mg/kg) was “slight and transient bodyweight loss” and the “% Max Killing” value (MSLN-negative cell lines; A431 cells (MSLN MFI 5.6)) was 93.04%. For the same compound, the “% Max Killing” value (MSLN-negative cell lines; BxPC3 cells (MSLN MFI 15.59)) was 97.28%, the IC50 (MSLN-negative cell lines; A-431, A431 cells (MSLN MFI 5.6)) was 180 pM and the IC50 (MSLN-negative cell lines; BXPC-3, BxPC3 cells (MSLN MFI 15.59)) was 130 pM. The IC50 (MSLN-negative cell lines; SK-OV-3, SKOV3 cells (MSLN MFI 20)) was 140 pM, the “% Max Killing” value (MSLN-negative cell lines; SKOV3 cells (MSLN MFI 20)) was 72.82% and the anti-tumor efficacy (human NSCLC PDX LXFL-529; eribulin single dose of 3.2 mg/kg (mouse MTD) i.v.) was “showed anti-tumor efficacy”. For the same compound, the tolerability / bodyweight (human NSCLC PDX LXFL-529; mouse, in vivo, iv, 3.2 mg/kg) was “slight and transient bodyweight loss”, the anti-tumor effect ([3]; Meso7212 (MV15369), eribulin alone 0.2 mg/kg (equivalent molar amount)) was “limited anti-tumor effects” and the body weight change ([3]; Meso7212 (MV16071), eribulin 0.3 mg/kg) was “No body weight loss”. For the same compound, the anti-tumor effect ([3]; Meso7212 (MV16071), eribulin alone 0.3 mg/kg (equivalent molar amount)) was “limited or no anti-tumor effects”, the IC50 (MSLN-positive cell lines; Homo sapiens, NCI-H292, read-out: In vitro cell based potency, IC50) was 110 pM and the “% Max Killing” value (MSLN-positive cell lines; NCI-H292 cells (MSLN MFI 108.6)) was 85.37%. For the same compound, the IC50 (MSLN-positive cell lines; NCI-H1568, read-out: In vitro cell based potency, IC50) was 140 pM, the “% Max Killing” value (MSLN-positive cell lines; NCI-H1568/MSLN cells (MSLN MFI 4474.00)) was 74.39% and the “% Max Killing” value (MSLN-positive cell lines; OVCAR3-A1 cells (MSLN MFI 220.0)) was 99.31%. It also gave an IC50 (MSLN-positive cell lines; read-out: In vitro cell based potency, IC50) of 20 pM.
